Reference: US11639350B2, “Heteroaryldihydropyrimidine derivatives and methods of treating hepatitis B infections” (Janssen Pharmaceutica NV, priority 2018, dated 2023)
Like-named read-outs stand apart in the source and are kept apart here.

Columns and labels:
[1] = tested on: HBV; assay: HBV inhibitory activity: HBV DNA in the culture medium of HepG2.2.15 cells by q-PCR; type: cell-based; settings: HepG2.2.15 cells, 6 days of compound treatment, HBV DNA in culture medium by q-PCR, highest concentration 10 μM, read-out: EC50
In short: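 HepG2.2.15 cells in 2% FBS medium, 40,000 per well, treated 6 days with compound (medium refreshed once), eight 3-fold dilutions from 10 μM top. HBV DNA extracted from culture medium and quantified by q-PCR; EC50 averaged over repeats. Cytotoxicity run in parallel at 5,000 cells per well, top 100 μM, giving CC50.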

[2] = tested on: HepG2.2.15 cells; assay: Cytotoxicity determination in HepG2.2.15 cells (CCK-8); type: cell-based; settings: 6 days of compound treatment, CCK-8, highest concentration 100 μM
In short: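 HepG2.2.15 cells seeded at 5,000 cells/well in 2% FBS medium, incubated overnight at 37° C., then treated 6 days with compounds (8 points, 3-fold dilutions, top 100 μM), medium refreshed once midway. CCK-8 added for 2.5 h; A450 read against 630 nm reference; CC50 calculated, averaged over repeats.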

Row | SMILES | EC50 [1] | CC50 [2] | EC50 ([1]; Hepatitis B virus, HepG2.2.15, 144 h)
1 | COC(=O)C1=C(C2CCOC2)NC(c2nccs2)=NC1c1cccc(F)c1Cl (single isomer, unassigned) [Compound 74D, Methyl 4-(2-chloro-3-fluorophenyl)-6-(tetrahydrofuran-3-yl)-2-(thiazol-2-yl)-1,4-dihydropyrimidine-5-carboxylate] | 303 nM | 84.5 µM | –
2 | CCOC(=O)C1=C(C2CCN(S(=O)(=O)C3CC(C)(C(=O)O)C3)CC2)NC(c2nccs2)=NC1c1cccc(F)c1Cl (single isomer, unassigned) [Compound 321A, (trans)-3-((4-(6-(2-Chloro-3-fluorophenyl)-5-(ethoxycarbonyl)-2-(thiazol-2-yl)-3,6-dihydropyrimidin-4-yl)piperidin-1-yl)sulfonyl)-1-methylcyclobutanecarboxylic Acid] | 12 nM | 17.2 µM | –
3 | COC(=O)C1=C(C2CCN(S(=O)(=O)CC3(C)CCC(C(=O)O)CC3)CC2)NC(c2nccs2)=NC1c1ccc(F)cc1Cl (single isomer, unassigned) [Compound 450B, (trans)-4-(((4-(6-(2-Chloro-4-fluorophenyl)-5-(methoxycarbonyl)-2-(thiazol-2-yl)-3,6-dihydropyrimidin-4-yl)piperidin-1-yl)sulfonyl)methyl)-4-methylcyclohexanecarboxylic Acid] | 7 nM | 14 µM | –
4 | COC(=O)C1=C(C2COC(CO)C2)NC(c2nccs2)=NC1c1cccc(F)c1Cl (single isomer, unassigned) [Compound 219A, Methyl 4-(2-chloro-3-fluorophenyl)-6-(5-(hydroxymethyl)-tetrahydrofuran-3-yl)-2-(thiazol-2-yl)-1,4-dihydropyrimidine-5-carboxylate] | 192 nM | 35.3 µM | –
5 | COC(=O)C1=C(C2CCN(S(=O)(=O)C3CC(C)(C(=O)OC)C3)CC2)NC(c2nccs2)=NC1c1ccc(F)c(F)c1Cl (single isomer, unassigned) [Compound 323C, trans-methyl 4-(2-chloro-3,4-difluorophenyl)-6-(1-((3-(methoxycarbonyl)-3-methylcyclobutyl)sulfonyl)piperidin-4-yl)-2-(thiazol-2-yl)-1,4-dihydropyrimidine-5-carboxylate] | 10 nM | 24.1 µM | –
6 | COC(=O)C1=C(C2CCC(NS(C)(=O)=O)C2)NC(c2nccs2)=NC1c1cccc(F)c1Cl (single isomer, unassigned) [Compound 61D, Methyl 4-(2-chloro-3-fluorophenyl)-6-(3-(methylsulfonamido)-cyclopentyl)-2-(thiazol-2-yl)-1,4-dihydropyrimidine-5-carboxylate] | 35 nM | 33.4 µM | –
7 | COC(=O)C1=C(C2CCC(NS(C)(=O)=O)C2)NC(c2nccs2)=NC1c1cccc(F)c1Cl (single isomer, unassigned) [Compound 61E, Methyl 4-(2-chloro-3-fluorophenyl)-6-(3-(methylsulfonamido)cyclopentyl)-2-(thiazol-2-yl)-1,4-dihydropyrimidine-5-carboxylate] | 358 nM | 21.7 µM | –
8 | COC(=O)C1=C([C@H]2CC[C@H](NS(C)(=O)=O)CC2)NC(c2ncc(F)cc2F)=NC1c1ccc(F)c(F)c1Cl (stereo partly shown) [Compound 298B] | 17 nM | 13.2 µM | –
9 | COC(=O)C1=C(C2COC(CO)C2)NC(c2nccs2)=NC1c1cccc(F)c1Cl (single isomer, unassigned) [Compound 219H, Methyl 4-(2-chloro-3-fluorophenyl)-6-(5-(hydroxymethyl)-tetrahydrofuran-3-yl)-2-(thiazol-2-yl)-1,4-dihydropyrimidine-5-carboxylate] | 334 nM | 1.5 µM | –
10 | COC(=O)C1=C(C2CCC(NC(C)=O)C2)NC(c2nccs2)=NC1c1cccc(F)c1Cl (single isomer, unassigned) [Compound 62B, Methyl 6-(3-acetamidocyclopentyl)-4-(2-chloro-3-fluorophenyl)-2-(thiazol-2-yl)-1,4-dihydropyrimidine-5-carboxylate] | 63 nM | 22.9 µM | –
11 | COC(=O)C1=C(C2CCOC2)NC(c2nccs2)=NC1c1cccc(F)c1Cl (single isomer, unassigned) [Compound 74A, Methyl 4-(2-chloro-3-fluorophenyl)-6-(tetrahydrofuran-3-yl)-2-(thiazol-2-yl)-1,4-dihydropyrimidine-5-carboxylate] | 88 nM | 33 µM | –
12 | CCOC(=O)C1=C(C2CCN(S(=O)(=O)C3CC(C)(C(=O)O)C3)CC2)NC(c2nccs2)=NC1c1cccc(F)c1Cl (single isomer, unassigned) [Compound 321B, (cis)-3-((4-(6-(2-Chloro-3-fluorophenyl)-5-(ethoxycarbonyl)-2-(thiazol-2-yl)-3,6-dihydropyrimidin-4-yl)piperidin-1-yl)sulfonyl)-1-methylcyclobutanecarboxylic Acid] | 60 nM | 15.8 µM | –
13 | CCOC(=O)C1=C(C2CCN(S(=O)(=O)C3CC(CC(=O)O)C3)CC2)NC(c2nccs2)=NC1c1ccc(F)c(F)c1Cl (stereo not shown) [Compound 482B, 2-(3-((4-(6-(2-Chloro-3,4-difluorophenyl)-5-(ethoxycarbonyl)-2-(thiazol-2-yl)-3,6-dihydropyrimidin-4-yl)piperidin-1-yl)sulfonyl)cyclobutyl)acetic Acid] | 11 nM | 11.3 µM | –
14 | COC(=O)C1=C([C@H]2CCC[C@@H](CO)C2)NC(c2nccs2)=NC1c1ccc(F)cc1Cl (single isomer, unassigned) [Compound 173C, Methyl 4-(2-chloro-4-fluorophenyl)-6-((cis)-3-(hydroxymethyl)cyclohexyl)-2-(thiazol-2-yl)-1,4-dihydropyrimidine-5-carboxylate] | 107 nM | 9.9 µM | –
15 | COC(=O)C1=C(C2CCC(NC(C)=O)C2)NC(c2nccs2)=NC1c1ccc(F)c(F)c1Cl (single isomer, unassigned) [Compound 300B, Methyl 6-(−3-acetamidocyclopentyl)-4-(2-chloro-3,4-difluorophenyl)-2-(thiazol-2-yl)-1,4-dihydropyrimidine-5-carboxylate] | 13 nM | 28.6 µM | –
16 | COC(=O)C1=C(C2CCN(S(C)(=O)=O)C2)NC(c2nccs2)=NC1c1ccc(F)cc1Cl (single isomer, unassigned) [Compound 65A, 4-(2-Chloro-4-fluoro-phenyl)-6-(1-methanesulfonyl-pyrrolidin-3-yl)-2-thiazol-2-yl-1,4-dihydro-pyrimidine-5-carboxylic Acid Methyl Ester] | – | 69.1 µM | 425 nM
17 | COC(=O)C1=C([C@H]2CC[C@H](NS(C)(=N)=O)CC2)NC(c2nccs2)=NC1c1ccc(F)cc1Cl (single isomer, unassigned) [Compound 287D, Methyl 4-(2-chloro-4-fluorophenyl)-6-((trans)-4-(methylsulfonoimidamido)cyclohexyl)-2-(thiazol-2-yl)-1,4-dihydropyrimidine-5-carboxylate] | 67 nM | 60 µM | –
18 | CCOC(=O)C1=C(C2CCN(S(=O)(=O)[C@H]3C[C@@](C)(C(=O)O)C3)CC2)NC(c2nccs2)=NC1c1ccc(F)cc1Cl (stereo partly drawn) [Compound 272B, (cis)-3-((4-(6-(2-Chloro-4-fluorophenyl)-5-(ethoxycarbonyl)-2-(thiazol-2-yl)-3,6-dihydropyrimidin-4-yl)piperidin-1-yl)sulfonyl)-1-methylcyclobutanecarboxylic Acid] | 47 nM | 20.1 µM | –
19 | COC(=O)C1=C(C2CCN(S(N)(=O)=O)CC2)NC(c2nccs2)=NC1c1ccc(F)c(F)c1Cl (stereo not shown) [Compound 416B] | 6 nM | 13.5 µM | –
20 | CCOC(=O)C1=C(C2CCN(S(=O)(=O)C3CC(C)(C(=O)O)C3)CC2)NC(c2nccs2)=NC1c1ccc(F)c(F)c1Cl (stereo not drawn) [Compound 270B, (cis)-3-((4-(6-(2-Chloro-3,4-difluorophenyl)-5-(ethoxycarbonyl)-2-(thiazol-2-yl)-3,6-dihydropyrimidin-4-yl)piperidin-1-yl)sulfonyl)-1-methylcyclobutanecarboxylic Acid] | 17 nM | 10.3 µM | –
21 | COC(=O)C1=C(C2CCC(=O)N2)NC(c2nccs2)=NC1c1cccc(F)c1Cl (single isomer, unassigned) [Compound 75A, Methyl 4-(2-chloro-3-fluorophenyl)-6-(5-oxopyrrolidin-2-yl)-2-(thiazol-2-yl)-1,4-dihydropyrimidine-5-carboxylate] | 213 nM | 32.3 µM | –
22 | COC(=O)C1=C(C2CCN(S(=O)(=O)C3CCC(C)(C(=O)O)CC3)CC2)NC(c2nccs2)=NC1c1ccc(F)c(F)c1Cl (single isomer, unassigned) [Compound 210B, (cis)-4-((4-(6-(2-chloro-3,4-difluorophenyl)-5-(methoxycarbonyl)-2-(thiazol-2-yl)-3,6-dihydropyrimidin-4-yl)piperidin-1-yl)sulfonyl)-1-methylcyclohexanecarboxylic Acid] | 44 nM | 9.7 µM | –
23 | CCOC(=O)C1=C([C@@H]2CCC[C@H](C(=O)O)CC2)NC(c2nccs2)=NC1c1ccc(F)c(F)c1Cl (relative stereo) [Compound 302E, (cis)-4-(−6-(2-Chloro-3,4-difluorophenyl)-5-(ethoxycarbonyl)-2-(thiazol-2-yl)-3,6-dihydropyrimidin-4-1)cycloheptanecarboxylic Acid] | 25 nM | 14.6 µM | –
